Experimental data reported in US11286231B2, “Hydrogen-bonding compounds, compositions comprising the same, and methods of preparing and using the same” (Wake Forest University Health Sciences, priority 2016, dated 2022).

Assays:
Assay type in all cases: physicochemical
[1] = Preliminary rheometer tensile stretch (stickiness) test of catechol amine hydrogel
Source text: (§1) These increases were not observed in control groups. This gives validation to the activity of the newly added catechol components of the system. […] Following this observation we employed the rheometer using a customized protocol to apply a tensile stretch to hydrogels that had immobilized between the base and testing geometry of the rheometry. The geometry was brought into contact with the sample and lowered until 0.4 N normal force was reached by the load cell. At this point, the sample was allowed to equilibrate for 30 seconds, after which the rheometer applied constant displacement vertically at 5 um/s, raising the geometry 1000 um, during which time resistive force (“stickiness”) was measured by the load cell every second.

[2] = Preliminary rheology, shear elastic modulus G′ of modular HA hydrogel with catechol amine; conditions: catechol amine bound to thiolated HA/gelatin hydrogel via thiol-alkyne, FIG. 1
Source text: as §1
Mechanical bulk properties. Hydrogels will be formed in custom molded 12 mm dishes and assessed by rheology to determine bulk material shear elastic modulus. […]

[3] = Oscillatory shear-stress sweep test, shear elastic modulus G′ of HyStem hydrogels
Experimental: To a 2 mL centrifuge tube, 200 μL of Heprasil® solution (1% w/v solution, thiolated HA component of HyStem kit), 200 μL of Gelin-S® solution (1% w/v, thiolated gelatin component of HyStem kit), 50 μL of Extralink® solution (2% w/v, polyethylene glycol diacrylate component of HyStem kit), and 50 μL of a modular catecholamine (C1.1) or amide […] solutions (0.25%-1.5% w/v, see Rheology section for specifics) were added and mixed by softly pipetting the solution up and down carefully to avoid creating bubbles. For control experiments the modular catecholamide or amine solutions were replaced with an equivalent volume of sterile deionized water. For rheology or cell culture studies, the reaction mixture was placed into wells of an appropriate size and exposed to UV radiation (˜222 nm) for 1-5 seconds.
A Discovery HR-2 Rheometer (TA Instruments, New Castle, Del.) with an 8 mm geometry was used to collect the rheological data. After reaction set-up, 200 μL of the reaction mixture was transferred into a 12 mm diameter×5 mm depth PDMS well. The PDMS well containing the reaction mixture was then exposed to UV radiation for 5 seconds at a distance of 1 cm. Photo-initiated polymerization and formation of a hydrogel occurred instantaneously. To ensure standard conditions across all experiments the geometry was lowered into the gels until a calibration normal force of 0.4N was achieved. Following, an oscillatory shear-stress sweep test (0.6-10.0 Pa, 1.0 Hz, 25° C.) was applied to hydrogels containing varying concentrations (0%, 1.0%, and 1.5% w/v) of modular amine compounds, C1.1 and C1.2. This experiment was repeated in triplicate for each condition. Average shear elastic modulus, G′, values were determined for each condition.
Shear-stress sweep tests (0.6-10.0 Pa, 1.0 Hz, 25° C.) were applied to hydrogels containing varying solution concentrations (0%, 1.0%, and 1.5% WAV) of modular amine compounds, C1.1/C1.2. Reported here are the average shear elastic modulus G′ values for n=3 runs for each condition (FIGS. 3 and 4). The reported uncertainties were calculated from standard deviations between n=3 averaged G′ values of each condition. In FIG. 3 we report the following G′ values: (2.136×10^3+/−3.988×10^2) Pa for the HyStem® control, (3.166×103+/−6.772×10^2) Pa for the HyStem®+1% w/v catecholamine, and (3.648×103+/8.047×102) Pa for the HyStem®+1.5% w/v catecholamine. […] Thus it was observed that when increasing the % w/v of the catecholamine (C1.1) solution used from 0% w/v, 1% w/v, 1.5% w/v, a proportional increase in G′ was observed, i.e., 1 equivalent of C1.1=1000 Pa increase in G′ and 1.5 equivalent=1500 Pa increase in the G′ of the hydrogel matrix.

| SMILES | increase in tensile resistance ([1]; catechol amine containing hydrogel, 5 um/s, 1000 um, FIG. 2, preliminary) [fold] | stickiness of hydrogel constructs during mechanical shear testing ([1]; qualitative) | G′ values of the hydrogel constructs (change) [2] | increase in G′ vs HyStem control ([3]; 1.0% w/v compound solution) | increase in G′ over gels containing 1.0% w/v C1.1 ([3]; 1.5% w/v C1.1 solution) [pa] | increase in G′ vs HyStem control ([3]; 1.5% w/v compound solution) | higher increase in G′ over gels containing 1.0% w/v C1.1 solution ([3]; 1.0% w/v C1.2 solution) [Pa] | shear elastic modulus G′ ([3]; Hystem + 1.0% w/v compound solution, n=3) |
| --- | --- | --- | --- | --- | --- | --- | --- | --- |
| C#CCNCc1ccc(O)c(O)c1 [Compound C1.1] | 3 | significantly more “stickiness” | further increased the G′ values | ~1.029×10^3+/−3.280×10^1 Pa | 477 | 1.512×10^3+/−3.469×10^1 Pa |  |  |
| C#CCNC(=O)Cc1ccc(O)c(O)c1 [Compound C1.2] |  |  |  | ~1.817×10^3+/−2.457×10^1 Pa |  | 1.989×10^3+/−1.378×10^1 Pa | 788 | 3.953×10^3+/−1.160×10^2 Pa |
